Reference: ChEMBL document CHEMBL1201862, “PubChem BioAssay data set” (2004)
Calls of active or inactive are those of the source.

Columns and labels:
[1] = loss of viability in HepG2 cells – cell-based, CellTiter-Glo, cherry-picked, cytotoxicity control for Shn3 inhibitor project, dose response (AID 624134); assay type: functional
Streptococcus = experiment: GAS UMAA2166 growth inhibition – luminescence, BacTiterGlo, counter-screen for streptokinase expression inhibitor project, dose response (AID 1915); assay type: functional, organism-based;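 also: potency for reduction of bacterial viability or growth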
Hexokinase-1 = molecular target: T1, Hexokinase-1 (Homo sapiens, UniProt P19367); experiment: HK1 enzyme activation by HKDC1 hits – biochemical, selectivity assay for HKDC1 activator project, dose response (AID 504762); assay type: functional
T1 sequence (P19367 whole entry): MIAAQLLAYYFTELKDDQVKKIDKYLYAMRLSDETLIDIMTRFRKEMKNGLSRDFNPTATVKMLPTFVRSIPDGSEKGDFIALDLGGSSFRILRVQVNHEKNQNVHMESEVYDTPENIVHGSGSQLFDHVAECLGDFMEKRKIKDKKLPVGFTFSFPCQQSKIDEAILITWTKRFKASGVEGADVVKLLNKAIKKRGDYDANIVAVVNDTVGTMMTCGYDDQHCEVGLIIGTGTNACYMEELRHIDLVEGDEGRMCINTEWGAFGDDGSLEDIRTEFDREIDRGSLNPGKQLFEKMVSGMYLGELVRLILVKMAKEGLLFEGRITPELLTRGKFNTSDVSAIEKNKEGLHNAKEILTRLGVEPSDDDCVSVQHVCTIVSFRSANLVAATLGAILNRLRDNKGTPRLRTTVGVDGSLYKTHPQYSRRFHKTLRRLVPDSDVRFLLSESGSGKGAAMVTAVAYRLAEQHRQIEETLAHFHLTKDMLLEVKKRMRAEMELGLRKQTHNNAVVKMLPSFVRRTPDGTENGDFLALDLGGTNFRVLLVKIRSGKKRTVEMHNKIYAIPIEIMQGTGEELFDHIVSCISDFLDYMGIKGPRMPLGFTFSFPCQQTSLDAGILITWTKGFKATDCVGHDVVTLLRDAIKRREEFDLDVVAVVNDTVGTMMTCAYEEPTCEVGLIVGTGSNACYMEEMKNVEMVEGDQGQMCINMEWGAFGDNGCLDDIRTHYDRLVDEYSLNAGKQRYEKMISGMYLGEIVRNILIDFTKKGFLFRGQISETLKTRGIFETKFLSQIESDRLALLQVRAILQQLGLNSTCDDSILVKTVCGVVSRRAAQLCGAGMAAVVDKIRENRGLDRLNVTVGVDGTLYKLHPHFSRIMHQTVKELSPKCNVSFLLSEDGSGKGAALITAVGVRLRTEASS

INS1 = experiment: INS-1E survival protection against cytokine death – cell-based, luminescence, retest, dose response (AID 449756); assay type: functional; conditions: Rattus norvegicus;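 also: cell death triggered by IL-1 beta plus TNF-alpha plus IFN-gamma mixture; protective hits raise ATP signal compared with cytokine alone wells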
[2] = system: Streptococcus sp. 'group A'; experiment: Streptococcus pyogenes SK(-)GAS viability under kanamycin – luminescence, BacTiterGlo, confirmation, counter-screen for streptokinase expression inhibitor project, dose response (AID 1900); assay type: functional, organism-based
Hexokinase HKDC1 = molecular target: T2, Hexokinase HKDC1 (Homo sapiens, UniProt Q2TB90); experiment: activation of HKDC1 glucose phosphorylation – biochemical, W721R variant, dose response (AID 504730); assay type: functional
T2 sequence (Q2TB90 whole entry): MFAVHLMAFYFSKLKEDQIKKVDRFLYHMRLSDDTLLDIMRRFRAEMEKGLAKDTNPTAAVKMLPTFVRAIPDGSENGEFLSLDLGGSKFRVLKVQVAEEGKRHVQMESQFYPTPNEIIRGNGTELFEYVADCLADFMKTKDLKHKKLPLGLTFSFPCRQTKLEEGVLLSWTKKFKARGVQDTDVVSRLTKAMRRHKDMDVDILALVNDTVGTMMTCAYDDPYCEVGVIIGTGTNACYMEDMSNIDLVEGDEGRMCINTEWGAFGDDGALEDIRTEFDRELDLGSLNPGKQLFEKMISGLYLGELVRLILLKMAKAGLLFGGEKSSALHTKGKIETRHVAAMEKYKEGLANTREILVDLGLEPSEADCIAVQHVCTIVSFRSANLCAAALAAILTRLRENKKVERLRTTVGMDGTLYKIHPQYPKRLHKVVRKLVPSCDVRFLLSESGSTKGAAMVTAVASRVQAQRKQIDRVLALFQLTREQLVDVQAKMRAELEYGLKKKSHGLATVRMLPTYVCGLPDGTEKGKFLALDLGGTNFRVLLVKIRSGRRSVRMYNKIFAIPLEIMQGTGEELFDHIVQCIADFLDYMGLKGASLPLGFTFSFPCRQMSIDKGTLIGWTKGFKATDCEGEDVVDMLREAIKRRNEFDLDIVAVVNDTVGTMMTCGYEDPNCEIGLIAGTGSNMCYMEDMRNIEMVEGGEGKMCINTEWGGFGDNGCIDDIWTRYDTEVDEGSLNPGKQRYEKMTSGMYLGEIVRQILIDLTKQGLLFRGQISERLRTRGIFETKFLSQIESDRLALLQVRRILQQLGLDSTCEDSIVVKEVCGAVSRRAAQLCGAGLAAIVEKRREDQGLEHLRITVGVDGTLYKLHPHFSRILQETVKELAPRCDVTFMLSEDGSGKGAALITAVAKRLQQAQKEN

[3] = non-specific 3'UTR reporter inhibition in Clone20-Shn3RL – cell-based, Renilla luciferase, cherry-picked, counter-screen for Shn3 inhibitor project, dose response (AID 624133); assay type: functional
Streptokinase A = molecular target: T3, Streptokinase A (Streptococcus pyogenes serotype M1, UniProt P10520); experiment: viability-normalized secreted streptokinase activity reduction – plasminogen activation absorbance, OD405, dose response (AID 1914); assay type: functional, Streptococcus pyogenes M1 GAS;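 also: secreted streptokinase activity via plasminogen activation per viability signal from cell pellet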
T3 sequence (P10520 whole entry): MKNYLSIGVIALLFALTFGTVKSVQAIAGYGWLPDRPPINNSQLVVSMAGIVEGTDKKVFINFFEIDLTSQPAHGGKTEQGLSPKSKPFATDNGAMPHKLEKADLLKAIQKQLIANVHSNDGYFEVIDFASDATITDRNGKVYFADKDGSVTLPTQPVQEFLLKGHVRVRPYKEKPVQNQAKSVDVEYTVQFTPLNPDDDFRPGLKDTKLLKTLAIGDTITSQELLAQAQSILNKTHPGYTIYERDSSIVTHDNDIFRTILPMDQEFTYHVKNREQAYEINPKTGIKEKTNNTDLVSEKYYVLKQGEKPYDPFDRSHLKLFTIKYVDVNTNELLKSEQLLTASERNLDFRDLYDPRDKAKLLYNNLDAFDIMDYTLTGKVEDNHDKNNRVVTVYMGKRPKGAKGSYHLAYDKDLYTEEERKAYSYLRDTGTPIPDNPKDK

[4] = molecular target: T4, Low molecular weight phosphotyrosine protein phosphatase (Homo sapiens, UniProt P24666); assay type: functional; conditions: read-out: IC50_Mean;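 also: Dose-response confirmation assay measuring inhibition of LMPTP enzyme activity by fluorescence intensity read-out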
T4 sequence (P24666 whole entry): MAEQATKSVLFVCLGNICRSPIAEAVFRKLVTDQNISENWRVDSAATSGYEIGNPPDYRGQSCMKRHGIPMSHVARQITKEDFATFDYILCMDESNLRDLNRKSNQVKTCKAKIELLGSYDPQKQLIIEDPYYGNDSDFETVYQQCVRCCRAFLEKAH

[5] = molecular target: T5, Voltage-gated N-type calcium channel alpha-1B subunit/Amyloid beta A4 precursor protein-binding family A member 1 (Homo sapiens, UniProt Q00975+Q02410); assay type: protein assay
[6] = molecular target: Epstein-Barr nuclear antigen 1 (Epstein-Barr virus (strain B95-8) (HHV-4) (Human herpesvirus 4), UniProt P03211); experiment: inhibition of EBV nuclear antigen 1 DNA binding – biochemical, fluorescence polarization, 1536-well, dose response (AID 2381); design: species or system human gammaherpesvirus 4;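 also: fluorescence polarization of a Cy5 DNA probe bound by EBNA-1 protein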
SUMO-activating enzyme [7] = molecular target: T6, SUMO-activating enzyme (Homo sapiens, UniProt Q9UBT2); experiment: blockers of UBC9-mediated SUMO conjugation – biochemical, AlphaScreen, SUMOylation inhibitor project, confirmation (AID 2018); assay type: functional
[8] = molecular target: DNA (cytosine-5)-methyltransferase 1 (Homo sapiens, UniProt P26358); experiment: inhibition of DNA methylation by DNMT1 – biochemical, fluorescent molecular beacon, confirmation (AID 602386); assay type: functional
[9] = molecular target: Lytic switch protein BZLF1 (Epstein-Barr virus (strain B95-8) (HHV-4) (Human herpesvirus 4), UniProt P03206); experiment: inhibition of BZLF1 ZTA DNA binding – biochemical, fluorescence polarization, Epstein-Barr virus, 1536-well, counter-screen for EBNA-1 inhibitor project, dose response (AID 2377); design: species or system human gammaherpesvirus 4;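 also: fluorescence polarization of Cy5-labelled ZRE DNA probe bound by purified Zta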
[10] = molecular target: T5, Voltage-gated N-type calcium channel alpha-1B subunit/Amyloid beta A4 precursor protein-binding family A member 1; assay type: protein assay; remark: listed apart in the source
SUMO-activating enzyme [11] = molecular target: T6, SUMO-activating enzyme; experiment: blockers of SAE1/SAE2–UBC9 SUMO transfer – biochemical, HTRF, uHTS, primary screen (AID 2006); assay type: protein-complex assay
Cannabinoid receptor 2 [12] = molecular target: T7, Cannabinoid receptor 2 (Homo sapiens, UniProt P34972); experiment: SAR analysis of antagonists of the Cannabinoid Receptor 2 using an Image-Based Assay. [Related pubchem assays (depositor defined):AID2013, AID2026]; assay type: functional
[13] = molecular target: T8, G-protein coupled receptor 35 (Homo sapiens, UniProt Q9HC97); experiment: SAR analysis of Antagonists of the GPR35 Receptor using an Image-Based Assay - Set 3. [Related pubchem assays (depositor defined):AID2013, AID2026]; assay type: functional
Cannabinoid receptor 1 [14] = molecular target: T9, Cannabinoid receptor 1 (Homo sapiens, UniProt P21554); experiment: SAR analysis of agonists of the Cannabinoid Receptor 1 using an Image-Based Assay - Set 2. [Related pubchem assays (depositor defined):AID2013, AID2026]; assay type: functional
Cannabinoid receptor 1 [15] = molecular target: T9, Cannabinoid receptor 1; experiment: SAR analysis of antagonists of the Cannabinoid Receptor 1 using an Image-Based Assay - Set 2. [Related pubchem assays (depositor defined):AID2013, AID2026]; assay type: functional
[16] = molecular target: T8, G-protein coupled receptor 35; experiment: SAR analysis of Agonists of the GPR35 Receptor using an Image-Based Assay - Set 2. [Related pubchem assays (depositor defined):AID2013, AID2026]; assay type: functional
Cannabinoid receptor 2 [17] = molecular target: T7, Cannabinoid receptor 2; experiment: SAR analysis of agonists of the Cannabinoid Receptor 2 using an Image-Based Assay. [Related pubchem assays (depositor defined):AID2013, AID2026]; assay type: functional
[18] = molecular target: G-protein coupled receptor 55 (Homo sapiens, UniProt Q9Y2T6); experiment: inhibition of LPI-stimulated GPR55 beta-arrestin translocation – imaging, U2OS, beta-arrestin-GFP, LPI agonist, primary screen (AID 2013); assay type: functional;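 also: antagonist potency measured as reduced agonist-driven arrestin aggregation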
[19] = molecular target: Signal transducer and activator of transcription 3 (Homo sapiens, UniProt P40763); experiment: STAT3 blockade with qPCR and toxicity readouts – cell-based, STAT1 panel, cytotoxicity, late-stage follow-up, panel member STAT3 Inhibition (AID 2078)
[20] = molecular target: Signal transducer and activator of transcription 1-alpha/beta (Homo sapiens, UniProt P42224); experiment: STAT3 blockade with qPCR and toxicity readouts – cell-based, STAT1 panel, cytotoxicity, late-stage follow-up, panel member STAT1 Inhibition (AID 2078)

T6 sequence (Q9UBE0 whole entry): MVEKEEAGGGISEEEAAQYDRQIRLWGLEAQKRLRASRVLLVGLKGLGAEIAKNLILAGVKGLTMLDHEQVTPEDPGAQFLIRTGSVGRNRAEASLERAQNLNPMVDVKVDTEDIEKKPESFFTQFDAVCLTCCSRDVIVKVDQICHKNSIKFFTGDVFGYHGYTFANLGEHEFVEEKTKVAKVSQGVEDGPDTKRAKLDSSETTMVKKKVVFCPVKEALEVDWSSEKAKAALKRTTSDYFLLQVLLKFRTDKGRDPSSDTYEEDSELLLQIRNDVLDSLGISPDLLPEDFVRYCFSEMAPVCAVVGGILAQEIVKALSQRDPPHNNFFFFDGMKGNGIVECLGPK
T6 sequence (Q9UBT2 whole entry): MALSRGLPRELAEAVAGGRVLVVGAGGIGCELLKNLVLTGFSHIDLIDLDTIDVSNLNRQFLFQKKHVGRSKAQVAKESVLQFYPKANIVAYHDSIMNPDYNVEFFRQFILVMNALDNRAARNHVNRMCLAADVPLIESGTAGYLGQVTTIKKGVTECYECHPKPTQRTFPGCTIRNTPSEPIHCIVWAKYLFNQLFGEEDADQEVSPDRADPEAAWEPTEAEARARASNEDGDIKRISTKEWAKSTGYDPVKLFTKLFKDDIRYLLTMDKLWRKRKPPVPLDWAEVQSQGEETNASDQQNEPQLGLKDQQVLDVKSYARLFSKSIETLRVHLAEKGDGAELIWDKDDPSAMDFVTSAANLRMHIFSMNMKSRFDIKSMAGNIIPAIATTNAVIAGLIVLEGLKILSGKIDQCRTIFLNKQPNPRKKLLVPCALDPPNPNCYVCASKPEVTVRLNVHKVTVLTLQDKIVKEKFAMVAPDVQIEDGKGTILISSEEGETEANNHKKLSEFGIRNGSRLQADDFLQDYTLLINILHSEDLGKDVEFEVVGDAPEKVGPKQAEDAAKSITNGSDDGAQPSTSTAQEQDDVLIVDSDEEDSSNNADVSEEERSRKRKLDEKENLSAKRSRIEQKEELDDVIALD
T9 sequence (P21554 whole entry): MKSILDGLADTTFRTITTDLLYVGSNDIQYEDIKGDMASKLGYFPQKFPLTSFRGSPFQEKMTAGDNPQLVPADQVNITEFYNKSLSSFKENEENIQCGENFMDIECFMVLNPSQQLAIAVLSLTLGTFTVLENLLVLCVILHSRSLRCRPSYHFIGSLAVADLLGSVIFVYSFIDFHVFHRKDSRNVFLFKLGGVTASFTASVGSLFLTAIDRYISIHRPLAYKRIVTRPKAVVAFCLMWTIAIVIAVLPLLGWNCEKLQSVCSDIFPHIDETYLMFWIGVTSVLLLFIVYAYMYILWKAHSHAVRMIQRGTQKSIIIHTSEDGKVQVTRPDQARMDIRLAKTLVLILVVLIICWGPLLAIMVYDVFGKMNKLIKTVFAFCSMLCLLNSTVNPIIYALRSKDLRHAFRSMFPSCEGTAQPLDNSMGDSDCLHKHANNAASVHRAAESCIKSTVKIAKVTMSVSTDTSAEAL
T5 sequence (Q00975 whole entry): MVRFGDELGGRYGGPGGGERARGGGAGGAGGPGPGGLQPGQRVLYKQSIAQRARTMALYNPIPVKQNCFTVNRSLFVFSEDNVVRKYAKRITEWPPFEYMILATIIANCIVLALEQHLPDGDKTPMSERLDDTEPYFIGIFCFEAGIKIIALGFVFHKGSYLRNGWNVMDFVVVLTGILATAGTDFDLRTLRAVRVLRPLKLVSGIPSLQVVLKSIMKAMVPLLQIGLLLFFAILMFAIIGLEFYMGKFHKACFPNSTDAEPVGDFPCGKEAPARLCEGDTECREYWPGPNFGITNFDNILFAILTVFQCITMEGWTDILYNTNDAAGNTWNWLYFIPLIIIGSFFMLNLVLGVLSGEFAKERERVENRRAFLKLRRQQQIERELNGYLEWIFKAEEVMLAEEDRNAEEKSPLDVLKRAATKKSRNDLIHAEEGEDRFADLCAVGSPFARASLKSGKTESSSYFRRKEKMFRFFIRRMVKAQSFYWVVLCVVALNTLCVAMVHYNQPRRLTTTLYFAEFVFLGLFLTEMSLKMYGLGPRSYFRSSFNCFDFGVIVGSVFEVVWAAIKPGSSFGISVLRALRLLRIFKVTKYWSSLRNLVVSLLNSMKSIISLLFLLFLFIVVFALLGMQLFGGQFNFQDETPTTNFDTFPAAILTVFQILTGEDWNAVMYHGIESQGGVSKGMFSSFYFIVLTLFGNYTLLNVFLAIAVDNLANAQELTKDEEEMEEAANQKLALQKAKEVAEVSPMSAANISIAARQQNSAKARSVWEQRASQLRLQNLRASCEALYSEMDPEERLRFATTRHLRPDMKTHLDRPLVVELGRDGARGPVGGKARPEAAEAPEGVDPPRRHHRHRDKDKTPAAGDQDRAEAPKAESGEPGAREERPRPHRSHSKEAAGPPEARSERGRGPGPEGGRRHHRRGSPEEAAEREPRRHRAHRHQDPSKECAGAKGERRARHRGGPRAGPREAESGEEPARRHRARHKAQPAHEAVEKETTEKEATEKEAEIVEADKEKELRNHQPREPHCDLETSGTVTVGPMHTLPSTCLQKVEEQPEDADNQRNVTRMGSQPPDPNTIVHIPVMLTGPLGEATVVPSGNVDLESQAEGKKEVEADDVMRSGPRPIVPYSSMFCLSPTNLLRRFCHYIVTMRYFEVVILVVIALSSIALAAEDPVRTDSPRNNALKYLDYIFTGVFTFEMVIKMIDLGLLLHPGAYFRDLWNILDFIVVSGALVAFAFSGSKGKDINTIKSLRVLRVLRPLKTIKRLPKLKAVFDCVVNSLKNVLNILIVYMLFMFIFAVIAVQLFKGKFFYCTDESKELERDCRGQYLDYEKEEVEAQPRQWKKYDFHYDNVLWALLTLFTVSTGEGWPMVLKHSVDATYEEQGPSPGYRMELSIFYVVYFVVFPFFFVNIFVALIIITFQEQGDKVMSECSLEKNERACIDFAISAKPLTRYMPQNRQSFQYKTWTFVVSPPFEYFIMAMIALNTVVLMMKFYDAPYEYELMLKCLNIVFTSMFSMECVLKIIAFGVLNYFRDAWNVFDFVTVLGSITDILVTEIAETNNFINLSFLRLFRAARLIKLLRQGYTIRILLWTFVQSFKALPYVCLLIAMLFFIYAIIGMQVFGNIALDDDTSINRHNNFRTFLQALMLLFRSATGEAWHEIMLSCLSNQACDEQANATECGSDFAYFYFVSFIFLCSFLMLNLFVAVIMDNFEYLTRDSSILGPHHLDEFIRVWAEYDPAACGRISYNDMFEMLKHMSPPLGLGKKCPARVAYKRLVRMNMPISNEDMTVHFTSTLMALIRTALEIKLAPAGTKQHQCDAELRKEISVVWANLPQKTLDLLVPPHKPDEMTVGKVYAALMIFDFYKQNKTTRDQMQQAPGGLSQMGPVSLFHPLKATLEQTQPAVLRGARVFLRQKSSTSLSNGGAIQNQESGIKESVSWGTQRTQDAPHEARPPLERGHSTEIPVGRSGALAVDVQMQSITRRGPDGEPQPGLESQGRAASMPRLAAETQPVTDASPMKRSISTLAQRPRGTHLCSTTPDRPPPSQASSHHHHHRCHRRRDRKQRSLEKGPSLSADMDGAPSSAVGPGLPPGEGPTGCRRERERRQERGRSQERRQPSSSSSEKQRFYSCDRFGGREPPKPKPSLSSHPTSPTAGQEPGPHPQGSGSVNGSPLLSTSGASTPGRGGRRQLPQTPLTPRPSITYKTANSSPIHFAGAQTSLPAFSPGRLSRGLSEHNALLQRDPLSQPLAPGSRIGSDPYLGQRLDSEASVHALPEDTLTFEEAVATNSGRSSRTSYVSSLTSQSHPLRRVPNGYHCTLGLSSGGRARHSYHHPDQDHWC
T5 sequence (Q02410 whole entry): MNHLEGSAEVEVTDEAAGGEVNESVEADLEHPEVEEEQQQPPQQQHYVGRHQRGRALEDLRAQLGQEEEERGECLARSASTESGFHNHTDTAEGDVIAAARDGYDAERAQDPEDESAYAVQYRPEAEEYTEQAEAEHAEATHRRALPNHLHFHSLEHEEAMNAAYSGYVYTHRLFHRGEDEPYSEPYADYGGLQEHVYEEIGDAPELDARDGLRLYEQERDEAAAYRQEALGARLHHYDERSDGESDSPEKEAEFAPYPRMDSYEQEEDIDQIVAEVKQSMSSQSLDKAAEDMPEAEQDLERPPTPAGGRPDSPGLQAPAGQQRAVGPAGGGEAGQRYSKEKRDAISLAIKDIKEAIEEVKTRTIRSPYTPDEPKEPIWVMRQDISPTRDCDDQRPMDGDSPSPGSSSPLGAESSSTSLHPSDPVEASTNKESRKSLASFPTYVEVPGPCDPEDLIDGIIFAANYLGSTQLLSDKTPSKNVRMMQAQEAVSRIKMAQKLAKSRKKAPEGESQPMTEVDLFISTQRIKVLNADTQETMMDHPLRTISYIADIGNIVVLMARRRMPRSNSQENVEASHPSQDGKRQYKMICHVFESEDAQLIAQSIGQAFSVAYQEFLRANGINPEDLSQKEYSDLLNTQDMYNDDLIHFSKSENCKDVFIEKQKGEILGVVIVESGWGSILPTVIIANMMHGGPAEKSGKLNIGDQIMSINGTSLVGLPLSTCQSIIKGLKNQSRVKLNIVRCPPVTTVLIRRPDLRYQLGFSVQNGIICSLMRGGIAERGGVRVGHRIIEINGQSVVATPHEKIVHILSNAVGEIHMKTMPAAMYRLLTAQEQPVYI
T7 sequence (P34972 whole entry): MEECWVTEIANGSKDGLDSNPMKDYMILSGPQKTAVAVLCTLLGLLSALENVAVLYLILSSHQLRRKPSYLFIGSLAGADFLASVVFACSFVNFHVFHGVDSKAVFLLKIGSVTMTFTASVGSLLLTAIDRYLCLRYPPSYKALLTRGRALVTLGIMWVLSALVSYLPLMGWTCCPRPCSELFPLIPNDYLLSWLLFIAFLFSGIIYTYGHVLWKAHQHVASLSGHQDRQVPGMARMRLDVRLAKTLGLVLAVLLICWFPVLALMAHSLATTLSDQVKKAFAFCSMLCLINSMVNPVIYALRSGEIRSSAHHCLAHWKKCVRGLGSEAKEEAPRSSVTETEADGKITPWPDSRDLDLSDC

## Fc1ccccc1NC1=NN=C(c2ccccc2)CS1
[1]
  AC50: 33.5 µM (active)
Streptococcus
  EC50: 9 µM (active)
Hexokinase-1
  EC50: 29.7 µM (inactive)
INS1
  AC50: 7.51 µM (active)
[2]
  EC50: 4.31 µM (active)
Hexokinase HKDC1
  EC50: 20.2 µM (inactive)
[3]
  AC50: 11.1 µM (active)
Streptokinase A
  EC50: > 150 µM (not active)

## O=C(COc1ccc(/C=N/NC(=O)c2ccc(O)cc2)cc1)Nc1ccc([N+](=O)[O-])cc1
[4]
  IC50: 9.58 µM (active)
[5]
  IC50: 9.71 µM (active)
[6]
  IC50: 14.5 µM (not active)
SUMO-activating enzyme [7]
  IC50: 9.81 µM (active)
[8]
  IC50: 8.43 µM (active)
[9]
  IC50: > 111 µM (not active)
[10]
  IC50: > 50 µM (inactive)
SUMO-activating enzyme [11]
  IC50: 8.49 µM (active)

## Cc1nc(N2CCN(C(=O)c3ccco3)CC2)c2c3c(sc2n1)CCCC3
Cannabinoid receptor 2 [12]
  IC50: > 32 µM (inactive)
[13]
  IC50: > 32 µM (inactive)
Cannabinoid receptor 1 [14]
  EC50: > 32 µM (inactive)
Cannabinoid receptor 1 [15]
  IC50: > 32 µM (inactive)
[16]
  EC50: > 32 µM (inactive)
Cannabinoid receptor 2 [17]
  EC50: > 32 µM (inactive)
[18]
  IC50: 1.58 µM (active)

## c1ccc(CC2CCN(c3ncnc4sc5c(c34)CCCC5)CC2)cc1
[19]
  IC50: > 55.7 µM (inactive)
[20]
  IC50: > 55.7 µM (inactive)
